# Measured values reported in PubChem BioAssay (NCI).
#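 All cell lines were grown in 96-well plates and treated with compound for 48 hours. TGI: total growth inhibition.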
# Tests used:
# Assay in all cases: DTP human tumour cell line panel, 48 h
# KM12 colon = system: KM12 colon
# CAKI-1 renal = system: CAKI-1 renal
# NCI-H226 lung = system: NCI-H226 lung
# RXF 393 renal = system: RXF 393 renal
# T-47D breast = system: T-47D breast
# SK-MEL-28 melanoma = system: SK-MEL-28 melanoma
# RPMI-8226 leukemia = system: RPMI-8226 leukemia
# SNB-75 CNS = system: SNB-75 CNS
# OVCAR-4 ovarian = system: OVCAR-4 ovarian
# NCI/ADR-RES ovarian = system: NCI/ADR-RES ovarian
SMILES,TGI (KM12 colon) [µM],TGI (CAKI-1 renal) [µM],TGI (NCI-H226 lung) [µM],TGI (RXF 393 renal) [µM],TGI (T-47D breast) [µM],TGI (SK-MEL-28 melanoma) [µM],TGI (RPMI-8226 leukemia) [µM],TGI (SNB-75 CNS) [µM],TGI (OVCAR-4 ovarian) [µM],TGI (NCI/ADR-RES ovarian) [µM]
Nc1ccc(C2SCC(=O)N2NS(=O)(=O)c2cccc(C(=O)O)c2)cc1 (stereo unspecified),> 100,> 100,> 100,> 100,> 100,> 100,> 100,> 100,–,–
CC(C)C(CCOS(=O)(=O)O)CCC(C)[C@H]1[C@@H](O)C(O)C2[C@]3(O)C[C@@H](O)C4(O)C[C@@H](O)CC[C@]4(C)C3CC[C@@]21C (stereo partly specified),> 100,> 100,> 100,> 100,–,> 100,> 100,–,> 100,–
C=CCOCn1cnc2c(=O)[nH]c(N)nc21,> 100,> 100,> 100,–,> 100,> 100,> 100,> 100,> 100,> 100
C/C(CCN(C)C)=N\OC(=O)c1ccccc1,> 100,> 100,> 100,> 100,–,> 100,> 100,> 100,> 100,–
C=C(C)CCC(O)[C@](C)(O)[C@H]1[C@H](O)C[C@@]2(C)[C@@H]3CCc4c(cc(OC5OC(CO)C(O)C(O)C5O)c(O)c4C)C3(C)C(=O)C[C@]12C (stereo partly specified),> 100,> 100,> 100,> 100,> 100,> 100,–,> 100,> 100,> 100
Cn1c(=O)n(C2(C)CSC2)c2ccccc21,> 100,> 100,> 100,> 100,–,> 100,> 100,> 100,> 100,–
Cc1ccc(S(=O)(=O)Nn2c(S)c(C#N)c(-c3ccc(Cl)cc3)c(C#N)c2=O)cc1,88.4,> 100,66.5,> 100,–,> 100,88.8,> 100,43.2,71.5
CC1=CC[C@@H](C(C)(C)O)C[C@@H]1O,> 5000,–,> 5000,> 5000,–,> 5000,–,> 5000,> 5000,–
O[C@@]12Cc3c([nH]c4ccccc34)[C@@H]3Oc4c(-c5ccccc5)ccc5c4[C@@]31CCN(CC1CC1)[C@@H]2C5,3.35,11.1,–,–,4.71,3.24,> 100,–,7.03,6.58
S=C1NNC2(C(=S)N1)c1ccccc1-c1ccccc12,> 10,> 10,> 10,–,> 10,–,> 10,> 10,> 10,> 10
COc1ccc(-c2cc(=O)c3cc(O)ccc3o2)c(OC)c1OC,87.7,> 100,> 100,89.4,–,> 100,32.8,76.5,> 100,–
O=C(OCC(OC(=O)c1ccccc1)C1CC(C2(O)CCCCC2)C(=O)O1)c1ccccc1 (stereo unspecified),> 25,> 25,> 25,> 25,–,> 25,> 25,> 25,> 25,> 25
